Residues, ends and D or L forms follow the SMILES beside them.
System: SHR rats
Assay type: in vivo, rat
Description: Each group was intragastrically administrated a solution of a corresponding tested substance or ultrapure water, in a volume of 10 mL/kg body weight, once per day for 30 consecutive days. The blood pressure and heart rates of the animals were measured during the administration of the tested substance. The blood pressure was measured with an LE5002 noninvasive blood pressure meter.

N[C@@H](Cc1ccc(O)cc1)C(=O)N[C@@H](Cc1ccc(O)cc1)C(=O)O [YY-peptide] (H-Tyr-Tyr-OH; N-terminus and C-terminus assumed)
blood pressure (SHR rats, 10 mg/kg intragastric once per day, 7th day, model control 161±6): 157±7
effect in lowering blood pressure (SHR rats, 10 mg/kg, 7th day): significant effect in lowering blood pressure
effect on body weight (rat, in vivo, 10 mg/kg): no obvious effect
effect on heart rates (rat, in vivo, 10 mg/kg): no obvious effect

— patent US20200140483A1, “USE OF Y PEPTIDE IN PREPARATION OF DRUG OR HEALTHCARE PRODUCT FOR LOWERING BLOOD PRESSURE” (priority 2017, published 2020)
